Measured values published in publication PMC8495455, “Discovery of a transdermally deliverable pentapeptide for activating AdipoR1 to promote hair growth” (EMBO Molecular Medicine, 2021).

Legend:
PDGFA protein = experiment: Growth factor protein quantitation in DP cell medium, PDGFA; assay type: cell-based, human; details: for protein_PDGFA: DP cell medium
Description: (§1) Next, we investigated the downstream effects of P5 on hair growth factor genes and proteins in DP cells. […] We tested whether P5 can also increase the mRNA levels and proteins of hair growth factors in DP cells: IGF‐1, VEGF, HGF, platelet‐derived growth factor alpha (PDGFA), and fibroblast growth factor (FGF) 7, which are known to induce or maintain the anagen phase of the hair cycle (Jindo et al, [1994]; Philpott et al, [1994]; Yano et al, [2001]; Jang, [2005]; Tomita et al, [2006]; Iino et al, [2007]).
(§2) Human DP cells were grown on a 100‐mm cell culture dish to 100% confluency. After washed by PBS three times, the cells were cultured with serum‐free DMEM and treated with P5. After 48 h, the medium was collected and filtered by a […]. The filtrate was then concentrated using a centrifugal concentrator (Vivaspin 6, 10‐kDa molecular weight cutoff, centrifuged 2,600 g at 4°C for 13 min, Sartorius Stedim Biotech). The signals of each protein in the concentrated media were detected and quantified, based on the enzyme‐linked immunosorbent assay (Human Cytokine Antibody Array C2000, RayBiotech).

[1] = tested on: AMPK phosphorylation through AdipoR1 in DP cells; experiment: Western blot p-AMPK in AdipoR1 siRNA-transfected DP cells; assay type: cell-based, human
Description: Following the confirmation of the molecular interaction between AdipoR1 and P5, we evaluated the activation of the intracellular signaling pathway by P5. We investigated whether APN treatment on ORS and DP cells could activate AMPK or ERK signaling pathways, which are previously known to be downstream effectors of AdipoR1 (Mao et al, [2006]; Deepa & Dong, [2009]; Shibata et al, [2012]). […] Next, for determination of whether both P5 and APN mediates the phosphorylation of AMPK through AdipoR1 in ORS and DP cells, the cells were transfected with AdipoR1 siRNA (Appendix Fig S1). […] Collectively, P5 activates AMPK signaling pathway through AdipoR1 in ORS and DP cells in vitro.
All transfections were performed using Lipofectamine 2000 following the manufacturer’s instructions (#11668019; Thermo Fisher). Human DP and ORS cells were cultured without antibiotics until reaching 50% confluency. AdipoR1 or scrambled siRNA (Bioneer) was used. The culture medium was changed 6 h after transfection, and the cells were incubated for another 24 h before subsequent analyses.
Human ORS and DP cells or skin tissue were lysed (RIPA lysis buffer; #20‐188; Merck Millipore). […] Antibody‐antigen complexes detected by enhanced chemiluminescent substrate (Thermo Fisher) were captured and quantified by Amersham imager 680 systems (GE Healthcare).

[2] = tested on: p-AMPK in ORS and DP cells of human HFs; experiment: IF staining p-AMPK of ex vivo cultured HF bulb; assay type: cell-based; details: vs vehicle
Description: We next investigated whether P5 can reproduce the effects of APN on hair growth promotion ex vivo (Won et al, [2012]) using ex vivo human HF organ culture model. […] The Ki‐67‐positive cell portion of the matrix area in the P5‐treated HFs was higher than that in the vehicle‐treated group (Fig 3E).
Paraffin‐embedded mouse cutaneous back tissue was sectioned (4 μm thickness) and stained with hematoxylin and eosin. For IF staining, human ORS cells cultured in FiTC‐P5, sectioned paraffin‐embedded human HFs (7 μm thickness), and sectioned paraffin‐embedded mouse cutaneous dorsal tissue or human skin tissue (5 μm thickness) were incubated at 4°C overnight with the following primary antibodies diluted in the diluent reagent (Invitrogen): phospho‐AMPK (#2535, 1:100; Cell Signaling), Ki‐67 (#M7240, 1:200; Dako), versican (#ab177480, 1:200; Abcam), or AdipoR1 antibody (#ab126611, 1:200; Abcam). After three washes with PBS, the slides were incubated with the secondary Alexa Fluor 488‐labeled anti‐mouse or rabbit IgG antibody (#ab150077, #ab150113, 1:200; Invitrogen), or Alexa Fluor 594‐labeled anti‐rabbit IgG antibody (#a11012, 1:200; Invitrogen) at 25°C for 1 h. Nuclei were counterstained with 4′,6‐diamidino‐2‐phenylindole (DAPI; #D1306, 1:1,000; Invitrogen). […] IF intensity was observed and recorded with a Nikon Eclipse Ni‐E fluorescence microscope (Nikon).

human ORS cells = experiment: MTT cell proliferation assay, ORS cells; assay type: cell-based; details: 0.5 or 5 μg/ml, 48 h, Paired t-test vs control
Description: To design transdermally deliverable AdipoR1 agonist, we further assessed the 15‐mer sequence by cutting it into several 5‐mer peptides (Fig EV1B) (Bos & Meinardi, [2000]). Based on the fact that AdipoRs are expressed in HF cells, including dermal papilla (DP) and outer root sheath (ORS) cells (Won et al, [2012]), we performed a cell proliferation assay on human DP and ORS cells to see if there is any potential biological effect of the 5‐mer peptides on the human HF cells.
Dermal papilla cells and ORS cells were seeded into a 96‐well plate (1.0 × 10^4 cells/well) with serum‐free culture media for 24 h and then treated with each candidate 5‐mer peptide (in 0.5 μg/ml or 5 μg/ml) for 48 h. After the addition of MTT solution (20 μl, 5 mg/ml) to each well, the cells were incubated for 4 h at 37°C in the dark room and then incubated with dimethyl sulfoxide (DMSO, 200 μl) for 20 min at room temperature. The samples were assessed by measuring the absorbance at 570 nm with an absorbance microplate reader (VersaMax).

IGF-1 protein = experiment: Growth factor protein quantitation in DP cell medium, IGF-1; assay type: cell-based, human; details: for protein_IGF1: DP cell medium
Description: as §1, §2

[3] = P5 5μM, relative to Control = 1, replicate 1
[4] = P5 5μM, relative to Control = 1, replicate 2
[5] = P5 5μM, relative to Control = 1, replicate 3
[6] = P5 25μM, relative to Control = 1, replicate 1
[7] = P5 25μM, relative to Control = 1, replicate 2
[8] = P5 25μM, relative to Control = 1, replicate 3
[9] = P5-treated DP cells, 48 h medium, n = 3

GLYYF [P5, GST-fused (GST-P5) in pulldown assays]
protein_PDGFA (PDGFA protein; [3]): 2.032 | protein_PDGFA (PDGFA protein; [4]): 1.0925 | protein_PDGFA (PDGFA protein; [5]): 1.228 | protein_PDGFA (PDGFA protein; [6]): 3.073 | protein_PDGFA (PDGFA protein; [7]): 1.25 | protein_PDGFA (PDGFA protein; [8]): 1.481 | PDGFA protein expression level (PDGFA protein; [9]): elevated | p-AMPK intensity after AdipoR1 siRNA transfection, DP cells [1]: intensity was reduced | p-AMPK in HF bulb (IF staining) [2]: prominently detected in ORS and DP cells | Cell proliferative effect, ORS cells (human ORS cells): significant cell proliferative effects | protein_IGF1 (IGF-1 protein; [3]): 0.9827 | protein_IGF1 (IGF-1 protein; [4]): 1.413 | protein_IGF1 (IGF-1 protein; [5]): 2.07 | protein_IGF1 (IGF-1 protein; [6]): 1.764 | protein_IGF1 (IGF-1 protein; [7]): 4.926 | protein_IGF1 (IGF-1 protein; [8]): 5.716 | IGF-1 protein expression level (IGF-1 protein; [9]): elevated
